Results from ChEMBL document CHEMBL3994622, “Design and synthesis of new RAF kinase-inhibiting antiproliferative quinoline derivatives. Part 2: Diarylurea derivatives” (Eur J Med Chem, 2017).

Tests used:
[1] = system: HL-60(TB); assay: Growth inhibition of human HL-60(TB) cells assessed as cell growth at 0.05 uM incubated for 48 hrs by sulforhodamine B assay relative to control; type: functional; conditions: HL-60, 48 h, read-out: Activity
[2] = system: UACC-62; assay: Growth inhibition of human UACC62 cells assessed as cell growth at 0.005 uM incubated for 48 hrs by sulforhodamine B assay relative to control; type: functional; conditions: UACC-62, 48 h, read-out: Activity
[3] = system: OVCAR-4; assay: Growth inhibition of human OVCAR4 cells assessed as cell growth at 0.005 uM incubated for 48 hrs by sulforhodamine B assay relative to control; type: functional; conditions: OVCAR-4, 48 h, read-out: Activity
[4] = system: A498; assay: Growth inhibition of human A498 cells assessed as cell growth at 0.005 uM incubated for 48 hrs by sulforhodamine B assay relative to control; type: functional; conditions: A498, 48 h, read-out: Activity
[5] = system: SN12C; assay: Growth inhibition of human SN12C cells assessed as cell growth at 0.005 uM incubated for 48 hrs by sulforhodamine B assay relative to control; type: functional; conditions: read-out: Activity
[6] = system: UO-31; assay: Growth inhibition of human UO31 cells assessed as cell growth at 0.005 uM incubated for 48 hrs by sulforhodamine B assay relative to control; type: functional; conditions: UO-31, 48 h, read-out: Activity
[7] = system: Hs-578T; assay: Growth inhibition of human Hs 578T cells assessed as cell growth at 0.005 uM incubated for 48 hrs by sulforhodamine B assay relative to control; type: functional; conditions: read-out: Activity
[8] = system: K562; assay: Growth inhibition of human K562 cells assessed as cell growth at 0.05 uM incubated for 48 hrs by sulforhodamine B assay relative to control; type: functional; conditions: K562, 48 h, read-out: Activity
[9] = system: NCI-H322M; assay: Growth inhibition of human NCI-H322M cells assessed as cell growth at 0.05 uM incubated for 48 hrs by sulforhodamine B assay relative to control; type: functional; conditions: read-out: Activity
[10] = system: MDA-MB-435; assay: Growth inhibition of human MDA-MB-435 cells assessed as cell growth at 0.05 uM incubated for 48 hrs by sulforhodamine B assay relative to control; type: functional; conditions: MDA-MB-435, 48 h, read-out: Activity
[11] = system: SK-MEL-2; assay: Growth inhibition of human SK-MEL-2 cells assessed as cell growth at 0.05 uM incubated for 48 hrs by sulforhodamine B assay relative to control; type: functional; conditions: SK-MEL-2, 48 h, read-out: Activity
[12] = system: SK-MEL-28; assay: Growth inhibition of human SK-MEL-28 cells assessed as cell growth at 0.05 uM incubated for 48 hrs by sulforhodamine B assay relative to control; type: functional; conditions: SK-MEL-28, 48 h, read-out: Activity
[13] = system: SK-MEL-5; assay: Growth inhibition of human SK-MEL-5 cells assessed as cell growth at 0.05 uM incubated for 48 hrs by sulforhodamine B assay relative to control; type: functional; conditions: SK-MEL-5, 48 h, read-out: Activity
[14] = system: MCF7; assay: Growth inhibition of human MCF7 cells assessed as cell growth at 0.05 uM incubated for 48 hrs by sulforhodamine B assay relative to control; type: functional; conditions: MCF7, 48 h, read-out: Activity
[15] = system: BT-549; assay: Growth inhibition of human BT549 cells assessed as cell growth at 0.05 uM incubated for 48 hrs by sulforhodamine B assay relative to control; type: functional; conditions: BT-549, 48 h, read-out: Activity
[16] = system: NCI/ADR-RES; assay: Growth inhibition of human NCI/ADR-RES cells assessed as cell growth at 0.5 uM incubated for 48 hrs by sulforhodamine B assay relative to control; type: functional; conditions: read-out: Activity
[17] = system: HCT-116; assay: Growth inhibition of human HCT116 cells assessed as cell growth at 5 uM incubated for 48 hrs by sulforhodamine B assay relative to control; type: functional; conditions: HCT-116, 48 h, read-out: Activity
[18] = system: SNB-75; assay: Growth inhibition of human SNB75 cells assessed as cell growth at 5 uM incubated for 48 hrs by sulforhodamine B assay relative to control; type: functional; conditions: SNB-75, 48 h, read-out: Activity
[19] = system: Malme-3M; assay: Growth inhibition of human MALME-3M cells assessed as cell growth at 5 uM incubated for 48 hrs by sulforhodamine B assay relative to control; type: functional; conditions: read-out: Activity
[20] = system: SK-MEL-2; assay: Growth inhibition of human SK-MEL-2 cells assessed as cell growth at 5 uM incubated for 48 hrs by sulforhodamine B assay relative to control; type: functional; conditions: SK-MEL-2, 48 h, read-out: Activity
[21] = system: SK-MEL-28; assay: Growth inhibition of human SK-MEL-28 cells assessed as cell growth at 5 uM incubated for 48 hrs by sulforhodamine B assay relative to control; type: functional; conditions: SK-MEL-28, 48 h, read-out: Activity
[22] = system: OVCAR-5; assay: Growth inhibition of human OVCAR5 cells assessed as cell growth at 5 uM incubated for 48 hrs by sulforhodamine B assay relative to control; type: functional; conditions: OVCAR-5, 48 h, read-out: Activity
[23] = system: MDA-MB-231; assay: Growth inhibition of human MDA-MB-231 cells assessed as cell growth at 5 uM incubated for 48 hrs by sulforhodamine B assay relative to control; type: functional; conditions: MDA-MB-231, 48 h, read-out: Activity
[24] = system: HOP-92; assay: Growth inhibition of human HOP92 cells assessed as cell growth at 50 uM incubated for 48 hrs by sulforhodamine B assay relative to control; type: functional; conditions: HOP-92, 48 h, read-out: Activity
[25] = system: HCT-15; assay: Growth inhibition of human HCT15 cells assessed as cell growth at 50 uM incubated for 48 hrs by sulforhodamine B assay relative to control; type: functional; conditions: HCT-15, 48 h, read-out: Activity
[26] = system: SW-620; assay: Growth inhibition of human SW620 cells assessed as cell growth at 50 uM incubated for 48 hrs by sulforhodamine B assay relative to control; type: functional; conditions: SW-620, 48 h, read-out: Activity
[27] = system: SNB-19; assay: Growth inhibition of human SNB19 cells assessed as cell growth at 50 uM incubated for 48 hrs by sulforhodamine B assay relative to control; type: functional; conditions: SNB-19, 48 h, read-out: Activity
[28] = system: MDA-MB-435; assay: Growth inhibition of human MDA-MB-435 cells assessed as cell growth at 50 uM incubated for 48 hrs by sulforhodamine B assay relative to control; type: functional; conditions: MDA-MB-435, 48 h, read-out: Activity
[29] = system: UO-31; assay: Growth inhibition of human UO31 cells assessed as cell growth at 50 uM incubated for 48 hrs by sulforhodamine B assay relative to control; type: functional; conditions: UO-31, 48 h, read-out: Activity
[30] = target: Epidermal growth factor receptor (Homo sapiens) (UniProt P00533); assay: Inhibition of human EGFR at 10 uM using poly[Glu:Tyr] (4:1) as substrate in presence of [33P]ATP by Hotspot assay relative to control
[31] = system: Serine/threonine-protein kinase B-raf (Homo sapiens), P15056 [V600E]; assay: Inhibition of human BRAF V600E mutant at 10 uM using MEK1 as substrate in presence of [33P]ATP by Hotspot assay relative to control
[32] = system: LOX IMVI; assay: Growth inhibition of human LOXIMVI cells assessed as cell growth at 0.03 uM incubated for 48 hrs by sulforhodamine B assay relative to control; type: functional; conditions: read-out: Activity
[33] = system: EKVX; assay: Growth inhibition of human EKVX cells assessed as cell growth at 3 uM incubated for 48 hrs by sulforhodamine B assay relative to control; type: functional; conditions: read-out: Activity

Sequence of Serine/threonine-protein kinase B-raf (Homo sapiens), P15056 [V600E] (P15056 whole entry V600E): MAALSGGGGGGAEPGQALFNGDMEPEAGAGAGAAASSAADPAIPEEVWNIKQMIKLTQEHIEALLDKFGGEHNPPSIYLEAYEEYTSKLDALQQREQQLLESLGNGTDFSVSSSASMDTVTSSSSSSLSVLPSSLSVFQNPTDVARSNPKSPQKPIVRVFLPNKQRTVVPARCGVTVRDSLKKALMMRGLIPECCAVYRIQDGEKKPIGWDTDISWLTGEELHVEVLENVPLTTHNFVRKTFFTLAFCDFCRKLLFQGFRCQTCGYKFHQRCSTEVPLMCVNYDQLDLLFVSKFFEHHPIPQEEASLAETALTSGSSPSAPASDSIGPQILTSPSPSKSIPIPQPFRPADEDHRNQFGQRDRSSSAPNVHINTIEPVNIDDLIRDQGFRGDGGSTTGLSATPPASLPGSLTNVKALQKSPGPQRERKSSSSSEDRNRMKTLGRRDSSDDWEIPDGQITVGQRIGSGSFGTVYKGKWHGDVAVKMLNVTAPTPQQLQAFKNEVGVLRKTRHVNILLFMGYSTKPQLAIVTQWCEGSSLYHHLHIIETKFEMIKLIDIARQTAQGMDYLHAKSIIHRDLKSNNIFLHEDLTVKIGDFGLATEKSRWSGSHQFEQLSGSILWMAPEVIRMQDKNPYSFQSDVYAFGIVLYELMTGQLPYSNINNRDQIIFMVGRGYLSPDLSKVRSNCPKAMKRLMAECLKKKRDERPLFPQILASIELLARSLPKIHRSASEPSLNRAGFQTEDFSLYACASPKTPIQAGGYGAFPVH
Sequence of Epidermal growth factor receptor (Homo sapiens) (P00533 whole entry): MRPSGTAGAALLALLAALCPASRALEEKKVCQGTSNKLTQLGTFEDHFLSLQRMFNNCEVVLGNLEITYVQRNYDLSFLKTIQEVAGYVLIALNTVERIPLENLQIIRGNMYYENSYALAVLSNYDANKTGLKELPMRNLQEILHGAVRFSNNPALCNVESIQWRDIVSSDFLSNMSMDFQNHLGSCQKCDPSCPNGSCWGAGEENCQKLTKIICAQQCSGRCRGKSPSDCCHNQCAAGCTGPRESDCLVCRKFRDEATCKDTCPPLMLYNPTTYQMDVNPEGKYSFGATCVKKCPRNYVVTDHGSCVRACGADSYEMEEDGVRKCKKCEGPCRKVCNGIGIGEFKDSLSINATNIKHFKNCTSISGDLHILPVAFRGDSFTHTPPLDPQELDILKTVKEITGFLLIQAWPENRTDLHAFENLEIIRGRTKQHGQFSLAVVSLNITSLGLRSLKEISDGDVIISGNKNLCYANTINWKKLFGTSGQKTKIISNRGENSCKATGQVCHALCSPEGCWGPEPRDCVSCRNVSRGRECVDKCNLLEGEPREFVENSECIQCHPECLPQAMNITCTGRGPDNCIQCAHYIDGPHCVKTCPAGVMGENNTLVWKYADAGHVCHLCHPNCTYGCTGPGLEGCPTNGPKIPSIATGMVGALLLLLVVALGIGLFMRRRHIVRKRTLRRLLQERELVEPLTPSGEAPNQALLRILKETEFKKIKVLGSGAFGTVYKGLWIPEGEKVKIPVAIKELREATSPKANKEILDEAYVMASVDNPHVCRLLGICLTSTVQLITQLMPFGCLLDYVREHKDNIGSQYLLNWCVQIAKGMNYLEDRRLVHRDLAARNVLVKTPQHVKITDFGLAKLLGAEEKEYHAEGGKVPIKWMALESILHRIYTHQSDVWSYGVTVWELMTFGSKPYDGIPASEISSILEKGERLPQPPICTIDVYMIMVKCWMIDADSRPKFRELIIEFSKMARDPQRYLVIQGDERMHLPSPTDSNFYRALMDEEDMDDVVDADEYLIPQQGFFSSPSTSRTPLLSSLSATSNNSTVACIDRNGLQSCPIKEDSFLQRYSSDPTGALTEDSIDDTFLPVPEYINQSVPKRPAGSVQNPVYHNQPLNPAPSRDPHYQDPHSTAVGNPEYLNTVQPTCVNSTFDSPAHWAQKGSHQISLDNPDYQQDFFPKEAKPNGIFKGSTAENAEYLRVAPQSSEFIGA

COc1cc2cc(Oc3ccc(NC(=O)Nc4cccc(C(F)(F)F)c4)cc3)c(C)nc2cc1OC showed a growth at 0.05 µM [1] of 101%, a growth at 0.005 µM [2] of 93% and a growth at 0.005 µM [3] of 92%. The growth at 0.005 µM [4] was 113%, the growth at 0.005 µM [5] was 95% and the growth at 0.005 µM [6] was 90%. For the same compound, the growth at 0.005 µM [7] was 90%, the growth at 0.05 µM [8] was 99% and the growth at 0.05 µM [9] was 96%. It also gave a growth at 0.05 µM [10] of 96%, a growth at 0.05 µM [11] of 104% and a growth at 0.05 µM [12] of 98%. It also gave a growth at 0.05 µM [13] of 92%, a growth at 0.05 µM [14] of 91% and a growth at 0.05 µM [15] of 84%. It also gave a growth at 0.5 µM [16] of 95%, a growth at 5 µM [17] of 6% and a growth at 5 µM [18] of 5%. It also gave a growth at 5 µM [19] of -1%, a growth at 5 µM [20] of -34% and a growth at 5 µM [21] of 21%. It also gave a growth at 5 µM [22] of 31%, a growth at 5 µM [23] of -7% and a growth at 50 µM [24] of -74%. For the same compound, the growth at 50 µM [25] was -10%, the growth at 50 µM [26] was -37% and the growth at 50 µM [27] was -26%. The growth at 50 µM [28] was -29% and the growth at 50 µM [29] was -24%.

COc1cc2cc(Oc3ccc(NC(=O)Nc4ccc(Cl)c(C(F)(F)F)c4)cc3)c(C)nc2cc1OC showed an inhibition [30] of -0.3%, an inhibition [31] of 88.9% and a growth at 0.03 µM [32] of 99%. It also gave a growth at 3 µM [33] of 5%.
